Results from ChEMBL document CHEMBL3046434, “cAMP-dependent phosphodiesterase inhibition and SAR studies on novel 6,8-disubstituted 2-phenyl-3-(substituted benzothiazole-2-yl)-4[3H]-quinazolinone” (Med Chem Res, 2009).

molecular target: T1, PDE7B protein (Bos taurus) (UniProt A6QP37); test: Inhibition of Bos taurus (bovine) heart cAMP-dependent phosphodiesterase assessed as inhibition of cyclic AMP to 5' AMP after 20 min by spectrophotometry relative to theophylline
T1 sequence (whole entry): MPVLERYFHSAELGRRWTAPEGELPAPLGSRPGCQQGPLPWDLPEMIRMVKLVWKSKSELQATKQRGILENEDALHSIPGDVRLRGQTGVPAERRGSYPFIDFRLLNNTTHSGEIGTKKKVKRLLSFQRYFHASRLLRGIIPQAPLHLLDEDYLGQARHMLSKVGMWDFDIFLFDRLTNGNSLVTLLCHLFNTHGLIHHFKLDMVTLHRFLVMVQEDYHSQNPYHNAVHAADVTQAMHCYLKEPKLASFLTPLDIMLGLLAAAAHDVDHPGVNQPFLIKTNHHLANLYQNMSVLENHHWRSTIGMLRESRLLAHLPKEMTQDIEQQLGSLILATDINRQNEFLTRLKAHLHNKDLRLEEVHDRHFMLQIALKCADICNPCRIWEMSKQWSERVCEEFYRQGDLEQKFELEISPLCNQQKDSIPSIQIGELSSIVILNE

Ratio | SMILES
1.27 | Cc1cccc2sc(-n3c(-c4ccccc4)nc4ccccc4c3=O)nc12
1.21 | O=c1c2ccccc2nc(-c2ccccc2)n1-c1nc2cc(Cl)ccc2s1
1.35 | COc1ccc2nc(-n3c(-c4ccccc4)nc4ccccc4c3=O)sc2c1
1.33 | COc1cccc2sc(-n3c(-c4ccccc4)nc4ccccc4c3=O)nc12
1.47 | O=c1c2ccccc2nc(-c2ccccc2)n1-c1nc2ccc([N+](=O)[O-])cc2s1
1.22 | O=c1c2ccccc2nc(-c2ccccc2)n1-c1nc2ccccc2s1
1.41 | CCOc1ccc2sc(-n3c(-c4ccccc4)nc4ccccc4c3=O)nc2c1
1.34 | COc1ccc2sc(-n3c(-c4ccccc4)nc4ccccc4c3=O)nc2c1
1.28 | O=c1c2ccccc2nc(-c2ccccc2)n1-c1nc2ccc(Br)cc2s1
1.38 | CCOc1ccc2nc(-n3c(-c4ccccc4)nc4ccccc4c3=O)sc2c1
1.18 | COc1cccc2sc(-n3c(-c4ccccc4)nc4c(Br)cc(Br)cc4c3=O)nc12
1.08 | O=c1c2cc(Br)cc(Br)c2nc(-c2ccccc2)n1-c1nc2ccccc2s1
1.35 | Cc1cc(C)c2nc(-n3c(-c4ccccc4)nc4ccccc4c3=O)sc2c1
1.21 | CCOc1cccc2sc(-n3c(-c4ccccc4)nc4c(Br)cc(Br)cc4c3=O)nc12
1.38 | CCOc1cccc2sc(-n3c(-c4ccccc4)nc4ccccc4c3=O)nc12
1.29 | Cc1ccc2sc(-n3c(-c4ccccc4)nc4ccccc4c3=O)nc2c1

Second part, the molecule before the results:

SMILES | Ratio
CCOc1ccc2sc(-n3c(-c4ccccc4)nc4c(Br)cc(Br)cc4c3=O)nc2c1 | 1.22
Cn1c(=O)c2[nH]cnc2n(C)c1=O | 1
Cc1ccc2sc(-n3c(-c4ccccc4)nc4c(Br)cc(Br)cc4c3=O)nc2c1 | 1.13
O=c1c2cc(Br)cc(Br)c2nc(-c2ccccc2)n1-c1nc2ccc(Br)cc2s1 | 0.927
CCOc1ccc2nc(-n3c(-c4ccccc4)nc4c(Br)cc(Br)cc4c3=O)sc2c1 | 1.19
COc1ccc2nc(-n3c(-c4ccccc4)nc4c(Br)cc(Br)cc4c3=O)sc2c1 | 1.2
Cc1cccc2sc(-n3c(-c4ccccc4)nc4c(Br)cc(Br)cc4c3=O)nc12 | 1.14
O=c1c2cc(Br)cc(Br)c2nc(-c2ccccc2)n1-c1nc2cc(Cl)ccc2s1 | 0.844
Cc1cc(C)c2nc(-n3c(-c4ccccc4)nc4c(Br)cc(Br)cc4c3=O)sc2c1 | 1.17
COc1ccc2sc(-n3c(-c4ccccc4)nc4c(Br)cc(Br)cc4c3=O)nc2c1 | 1.18
O=c1c2cc(Br)cc(Br)c2nc(-c2ccccc2)n1-c1nc2ccc([N+](=O)[O-])cc2s1 | 0.869
